Results taken from patent publication US20260365625A1, “DEUTERIUM ENRICHED PHENYL DERIVATIVES FOR TREATING MITOCHONDRIARELATED DISORDERS OR CONDITIONS” (Rivus Pharmaceuticals, Inc., priority 2022, published 2026).

System: HepG2 (hepatocellular carcinoma cells)
Assay: Oxygen consumption rate (OCR) in HepG2 cells, Seahorse XFe96 Extracellular Flux Analyzer
Type: cell-based
Procedure: HepG2 (hepatocellular carcinoma cells) were utilized in a Seahorse XFe96 Extracellular Flux Analyzer to analyze Compound (A)'s and the phenolic metabolite of the compound of formula (I)'s (“DNP”) effect on oxygen consumption rate (OCR).
30,000 HepG2 cells in MEM Alpha growth medium+10% Fetal Bovine Serum were seeded in XFe 96-well cell culture plate and incubated overnight at 37 °C with 5% CO2. The following day, cells were transferred to assay media (DMEM basal assay medium containing 10 mM Glucose 2 mM Glutamine, 1 mM Sodium Pyruvate, adjusted to pH7.4 with IN NaOH) and OCR was measured in a Seahorse XFe96 Extracellular Flux Analyzer according to the manufacturer's instructions. The effect of novel compounds on OCR was assayed in quadruplicates, at three different concentrations and in three separate experiments. The concentration that reaches half their maximum effect (EC50) and maximum OCR (Emax) increase as compared to DNP (100%) over untreated cells (0%) was calculated as an average between the three independent experiments. For data analysis GraphPad Prism was utilized.

## O=[N+]([O-])c1ccc(O)c([N+](=O)[O-])c1 [DNP]
OCR values normalized to 100 μM DNP (Emax=100%), average of three independent experiments
  Emax (maximum OCR increase as compared to DNP (100%) over untreated cells (0%)): 100%
Result in words
  effect on oxygen consumption rate (OCR): increased oxygen consumption rate (OCR)
Three concentrations in quadruplicates, average of three independent experiments, read-out: EC50 (concentration that reaches half their maximum effect on OCR)
  EC50: 22 µM
